Columns and labels:
GPR4 [1] = target: T1, GPR4 (Homo sapiens, UniProt P46093); assay: SRE luciferase reporter in GPR4-transfected HEK293 cells; type: cell-based; conditions: GPR4-transfected HEK293 cells; for EC50: read-out: EC50 for the activation of SRE; for activation of SRE reporter: lipid 1 μM
T1 construct: were used to generate full length GPR4, which was digested with EcoRI and Xba I and cloned into the pBs3HA vector; expressed in transfected cells
How it was run: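 HEK293 cells, vector-, GPR4- or TDAG8-transfected, co-transfected with pSRE-Luc, serum-starved 16 h, then given SPC or other lipids in serum-free RPMI 1640 for 10 h before luciferase readout from lysates. Where used, PTX (100 ng/ml) added during starvation; C3-exoenzyme plasmid co-transfected. Quadruplicates, Student's t test, p<0.05.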

GPR4 [2] = target: T1, GPR4; assay: ERK MAP kinase activation (phospho-ERK Western blot) in GPR4-infected Swiss 3T3 cells; type: cell-based; conditions: for concentration at which ERK activation was evident / time point at which ERK activation was evident: GPR4-infected Swiss 3T3 cells; for GPR4-dependent ERK activation (in words): GPR4-ires-GFP vs GFP Swiss 3T3 cells, SPC and LPC 100 nM
How it was run: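 Swiss 3T3 cells transduced with MSCV GPR4-ires-GFP or empty vector, FACS-sorted for GFP, serum-starved overnight, then stimulated with lipids in DMEM. Phospho-ERK1/2 detected by Western blot with ECL, normalised to total ERK; some cells pretreated with 100 ng/ml PTX for 12–16 h before SPC or LPC.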

HEY ovarian cancer cells = assay: DNA synthesis / growth of HEY ovarian cancer cells with SPC and phage preparations; type: cell-based, human; conditions: SPC 10 μM
Experimental: To determine if these selected phage clones were capable of blocking a biological effect of SPC, we mixed phage preparations with SPC. After a 30 min incubation, this mixture was added to HEY cells and its effect on SPC-induced cell proliferation was tested. If a phage clone was carrying a specific sequence which binds to SPC, the addition of the phage to SPC could block the effect of SPC on HEY cells.

TDAG8 = target: T2, TDAG8 (Homo sapiens, UniProt Q8IYL9); assay: Transwell cell migration of TDAG8-transfected HEK293 cells; type: cell-based; conditions: TDAG8 overexpressed in HEK293 cells
T2 construct: expressed in transfected cells
T2 sequence (Q8IYL9 whole entry): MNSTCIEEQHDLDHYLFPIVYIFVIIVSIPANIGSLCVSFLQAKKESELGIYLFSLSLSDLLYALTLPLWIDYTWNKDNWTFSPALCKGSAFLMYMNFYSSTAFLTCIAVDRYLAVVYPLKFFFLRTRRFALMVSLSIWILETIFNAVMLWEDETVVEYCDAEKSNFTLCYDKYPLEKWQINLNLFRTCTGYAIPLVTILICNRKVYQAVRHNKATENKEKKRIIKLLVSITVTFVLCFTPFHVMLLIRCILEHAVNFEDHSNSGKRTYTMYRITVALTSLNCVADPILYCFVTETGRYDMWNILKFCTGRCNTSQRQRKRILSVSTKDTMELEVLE
Experimental: To determine whether GPR4 and/or TDGA8 can mediate the LPC-induced cell migration, we transfected HEK293 cells with GPR4 or TDAG8. Cell migration was performed in Transwell apparatus. GPR4-transfected HEK293 cells, and TDAG8-transfected HEK293 cells migrated to the low-phase of the membrane and the lower chamber of the Transwell in response to SPC and LPC, used at 0.2 μM.

T1 sequence (P46093 whole entry): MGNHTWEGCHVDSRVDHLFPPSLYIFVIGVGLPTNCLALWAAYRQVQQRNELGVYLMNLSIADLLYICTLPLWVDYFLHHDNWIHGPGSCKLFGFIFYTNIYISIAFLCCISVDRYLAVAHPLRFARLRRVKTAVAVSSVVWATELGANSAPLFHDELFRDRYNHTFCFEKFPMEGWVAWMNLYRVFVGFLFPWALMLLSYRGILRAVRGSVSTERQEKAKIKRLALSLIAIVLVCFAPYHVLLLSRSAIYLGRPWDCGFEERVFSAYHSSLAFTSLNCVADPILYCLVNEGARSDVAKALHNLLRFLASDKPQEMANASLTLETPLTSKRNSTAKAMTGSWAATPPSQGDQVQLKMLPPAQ

Molecule | EC50 (GPR4 [1]) [nM] | activation of SRE reporter (GPR4 [1]) [fold] | concentration at which ERK activation was evident (GPR4 [2]) | time point at which ERK activation was evident (GPR4 [2]) [min] | GPR4-dependent ERK activation (in words) (GPR4 [2]) | effect on DNA synthesis in HEY cells (HEY ovarian cancer cells) | increase of cell migration compared with control cells (TDAG8)
CCCCCCCCCCCCCCCC(=O)OC[C@@H](O)COP(=O)([O-])OCC[N+](C)(C)C [16:0-LPC] | 160 | 3.1 |  |  |  |  | 
CCCCCCCCCCCCC/C=C/[C@@H](O)[C@@H](N)COP(=O)([O-])OCC[N+](C)(C)C [SPC, Sphingosylphosphorylcholine] | 63 | 4 | approximately 10 nM | 1 | enhanced ERK activation | inhibited DNA synthesis | four to five-fold
lysophosphatidylcholine [LPC] |  |  | ~100 nM | 5 | enhanced ERK activation |  | four to five-fold

— patent publication US20020107197A1, “Ligands for G protein coupled receptors and methods of using them” (priority 2000, published 2002)
